The test system of assay [1] is PBMCs. The assay can be described thus: Lymphocyte activation in PBMCs (CD69 and activated LFA-1, flow cytometry). As to conditions: PBMCs stimulated with PMA and Ionomycin, vs control. Type of assay: cell-based, human. The protocol: Figures show 1×10^6 PBMC cells/ml stimulated with PMA and Ionomycin that were treated with DMSO or WASp-binding SMCs. After incubation, the cells were stained with PE-Cy5™-conjugated mouse anti-human CD69 and lymphocyte activation was measured by flow-cytometry as described in the Experimental procedures. Histograms of DMSO versus SMC #6 (FIG. 8A), SMC #30 (FIG. 8B), SMC #33 (FIG. 8C), and SMC #34 (FIG. 8D) are presented and represent three independent experiments.
After incubation, the cells were stained with anti-activated LFA-1 antibody (KIM127), followed by staining with Alexa488-Fluor goat anti-mouse IgG1 secondary antibody, and lymphocyte activation was measured by flow-cytometry as described in the Experimental procedures. Histogram of negative control versus SMC #6 is presented.
PBMCs or Jurkat cells (about 3×10^5 cells) were incubated for 4 h, at 37° C. with 50 ng/ml PMA and 250 ng/ml lonomycin, or 40 ng/ml PMA and 6 μM Ionomycin, respectively, or left untreated. After incubation, the cells were collected and stained with 1 μg/ml anti-active human LFA-1 antibody (purified from KIM127 hybridoma sup, ATCC Cat #: CRL-2838, Sigma) for 30 min in 37° C., followed by staining with Alexa488-Fluor goat anti-mouse IgG1 secondary antibody (Molecular Probes, Cat #: A-21121), 30 min on ice. Cells were then co-stained with PE-Cy5™-conjugated mouse anti-human CD69 (BD Pharmingen, Cat #: 555532) to measure lymphocyte activation.
Lymphocyte activation is a hallmark of a normal immune response. To test whether treatment with WASp-binding SMCs could upregulate lymphocyte activation, freshly-isolated PBMCs were incubated with SMCs or control (solvent only) and stimulated with PMA and lonomycin. The cells were then stained with two different antibodies, which recognize two lymphocyte activation markers, CD69 and an epitope exposed at the active conformation of the integrin LFA-1 (KIM127). Both were detected by flow-cytometry.
In general terms: In flow cytometry, cells or beads pass a laser one at a time.

The test system of assay [2] is Jurkat T cells. The assay can be described thus: Lymphocyte migration on ICAM-1/SDF-1α-coated cover glasses. Type of assay: cell-based, human. Conditions: tracked over 20 min, mean ± SE. The protocol: Jurkat T cells were pretreated with DMSO or the indicated WASp-binding SMCs, and cell migration on ICAM-1/SDF-1α-coated cover glasses was tracked over a 20-min period, as described in Experimental procedures. Each line in FIG. 10A represents one cell. The tracks of five representative cells from each treatment are presented.
Error bars represent the SE from the mean. P values versus DMSO-treated control cells are presented and were calculated by two-tailed Student's t-test.
Approximately 1×10^5 lymphocytes were seeded over chambered coverslips (LabTek) pre-coated with 6 μg/ml ICAM-1 and 2 μg/ml SDF-1α. Cells were incubated at 37° C., 5% CO2 and DIC images were acquired with the Zeiss Observer Z1 inverted microscope every 5 s for 20 min under a 20× objective lens using Zen software. The random movement (Displacement and velocity) of the cells was automatically tracked and analyzed using TrackMate plugin of ImageJ software. An individual trace was assigned to each of the analyzed cells.
A common theme of active lymphocytes is their high migratory ability. This enables them to move within tissues and reach and engage target cells (Burkhardt et al, 2008). Because WASp plays a role in cellular motility, the ability of WASp-binding SMCs to effectively enhance the migration of lymphocytes was tested. The random movement of SMC-treated or control cells was automatically tracked and analyzed using live microscopy, as described in Experimental procedures.

Assay [3] addresses T1, WASp (Homo sapiens, UniProt P42768).
T1 construct: endogenous in cells; host or cells: primary human platelets from healthy donors
T1 sequence (P42768 1-502): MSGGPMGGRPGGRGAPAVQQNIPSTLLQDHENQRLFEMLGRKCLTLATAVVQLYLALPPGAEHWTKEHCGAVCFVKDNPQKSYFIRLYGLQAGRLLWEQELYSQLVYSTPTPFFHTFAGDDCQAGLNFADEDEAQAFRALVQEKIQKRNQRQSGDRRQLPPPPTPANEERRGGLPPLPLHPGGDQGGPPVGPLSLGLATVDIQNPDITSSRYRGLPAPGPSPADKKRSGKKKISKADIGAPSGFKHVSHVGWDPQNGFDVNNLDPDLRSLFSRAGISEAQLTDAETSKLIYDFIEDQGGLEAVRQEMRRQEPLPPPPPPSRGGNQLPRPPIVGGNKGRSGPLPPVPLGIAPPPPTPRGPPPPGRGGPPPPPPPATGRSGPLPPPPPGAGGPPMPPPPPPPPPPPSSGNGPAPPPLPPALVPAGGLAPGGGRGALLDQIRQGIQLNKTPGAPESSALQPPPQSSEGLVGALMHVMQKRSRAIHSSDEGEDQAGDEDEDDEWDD
The assay can be described thus: WASp ubiquitylation in platelets (immunoprecipitation, anti-ubiquitin blot). In kind it is cell-based. Conditions: 15 min pre-incubation, vs activated untreated cells. The protocol: FIGS. 12A and 12B. show freshly-isolated platelets that were either stimulated (+) with TRAP-6 (10 μM) or unstimulated (−) and pre-incubated at 37° C. for 15 min with either DMSO or the indicated WASp-binding SMCs (FIG. 12A—SMC #6; FIG. 12B—SMC #33), followed by lysis. Lysates were subjected to immunoprecipitation with anti-WASp antibody and were analyzed by western blotting with anti-ubiquitin (Ub) and with anti-WASp as precipitation control. Ubiquitylated WASp appears as a smear of bands above the molecular weight (MW) of 65 kDa with a prominent band at ˜81 kDa. Blots are representative of three independent experiments.
Immunoprecipitations and western blotting analysis were performed as previously described (Reicher et al, 2012). Briefly, platelets (2×10^8 cells per sample) were lysed by the addition of an equal volume of 2× lysis buffer (30 mM HEPES pH7.4, 300 mM NaCl, 2 mM phenylmethyl sulfonyl fluoride (PMSF), 2 mM sodium orthovanadate, 2% Triton X-100 and complete protease inhibitor tablets (Roche)). MEG-01 cells (2×10^7 cells per sample) were lysed in 1.25× lysis buffer. Proteasome activity was blocked by addition of MG132 (AdooQ) to platelets and Meg-01 cell medium at final concentration of 10 μM, for 1 h before the cells were harvested. […]

Experimental findings from patent US12150940B2, “WASp-protecting small molecules, compositions, methods and uses thereof in the treatment of innate and acquired immune-related disorders or conditions” (BAR ILAN UNIVERSITY, priority 2016, dated 2024) are described below.

As for `CC1CCCC(C)N1C(=O)CSc1nnc(COc2cccc3cccnc23)o1` (centres unmarked) [SMC #34, 1-(2,6-dimethylpiperidin-1-yl)-2-[[5-(quinolin-8-yloxymethyl)-1,3,4-oxadiazol-2-yl]sulfanyl]ethanone], in assay [1], the “lymphocyte activation (CD69, activated LFA-1)” value was “upregulation of lymphocyte activation”. The molecule also gave a mean cell displacement in assay [2] of 48.91±6.
Turning to `Cc1ccccc1N(CC(=O)NCc1ccccc1)C(=O)CCC(=O)Nc1nccs1` [SMC #33, N′-[2-(benzylamino)-2-oxoethyl]-N′-(2-methylphenyl)-N-(1,3-thiazol-2-yl)butanediamide], the “WASp ubiquitylation in active platelets” value in assay [3] is on record as “considerably decreased”. For the same molecule, in assay [1], the “lymphocyte activation (CD69, activated LFA-1)” value is given as “upregulation of lymphocyte activation”. Besides, the mean cell displacement in assay [2] is given as 32.92±4.28.
On the same counts, the results for `CC(=O)N[C@H]1C[C@@H](c2ccc3c(c2)nnn3C)O[C@@H](c2ccc(Cl)cc2)C1` [SMC #6, N-[(2R,4R,6S)-2-(4-chlorophenyl)-6-(1-methylbenzotriazol-5-yl)oxan-4-yl]acetamide] are “considerably decreased”, “upregulation of lymphocyte activation” and 29.52±2.96.
